Experiments:
SPT [1] = settings: literature statement; cited from earlier work
SPT [2] = target: T1, SPT (Homo sapiens, UniProt O15269+O15270); experiment: Serine palmitoyltransferase activity, Assay C ([3H]serine incorporation into lipids, cell homogenate); format: biochemical; settings: for inhibition of SPT (in words): Assay C, at the doses of Table 2
T1 construct: endogenous in cells
T1 sequence (O15269 1-473): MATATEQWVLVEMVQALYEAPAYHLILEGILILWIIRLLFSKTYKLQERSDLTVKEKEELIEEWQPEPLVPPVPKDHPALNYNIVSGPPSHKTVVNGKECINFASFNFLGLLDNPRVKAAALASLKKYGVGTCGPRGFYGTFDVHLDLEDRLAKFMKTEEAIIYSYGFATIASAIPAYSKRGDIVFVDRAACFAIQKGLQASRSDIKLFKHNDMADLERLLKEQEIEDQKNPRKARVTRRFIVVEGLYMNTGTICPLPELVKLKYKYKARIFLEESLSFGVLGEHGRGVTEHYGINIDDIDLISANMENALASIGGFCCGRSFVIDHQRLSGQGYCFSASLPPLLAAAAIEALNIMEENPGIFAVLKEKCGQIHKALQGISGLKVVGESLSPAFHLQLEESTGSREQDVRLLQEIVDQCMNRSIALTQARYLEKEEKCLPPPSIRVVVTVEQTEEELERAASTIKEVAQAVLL
T1 sequence (O15270 1-562): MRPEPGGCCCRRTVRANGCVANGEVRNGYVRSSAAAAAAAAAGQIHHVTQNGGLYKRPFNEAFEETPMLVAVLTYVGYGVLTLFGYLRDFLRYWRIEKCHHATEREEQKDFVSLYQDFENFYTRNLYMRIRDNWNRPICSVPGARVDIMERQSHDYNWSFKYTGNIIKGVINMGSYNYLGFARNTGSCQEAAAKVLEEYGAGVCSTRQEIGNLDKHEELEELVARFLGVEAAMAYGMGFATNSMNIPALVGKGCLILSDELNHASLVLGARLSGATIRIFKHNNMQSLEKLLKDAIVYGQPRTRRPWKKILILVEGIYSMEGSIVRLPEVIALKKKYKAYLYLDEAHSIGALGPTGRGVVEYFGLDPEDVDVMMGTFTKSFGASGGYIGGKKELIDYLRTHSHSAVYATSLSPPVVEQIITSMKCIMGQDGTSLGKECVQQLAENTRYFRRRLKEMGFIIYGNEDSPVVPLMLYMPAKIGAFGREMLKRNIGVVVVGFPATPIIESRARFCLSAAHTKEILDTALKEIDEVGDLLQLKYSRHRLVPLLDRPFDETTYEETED
T1 sequence (Q969W0 1-71 partner): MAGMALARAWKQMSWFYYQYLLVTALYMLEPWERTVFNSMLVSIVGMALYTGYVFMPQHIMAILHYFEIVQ
Description: An alternative assay for evaluating inhibition of SPT, the enzyme present in commonly cultured cells, is performed with CHO cells or a human cell line. Cells are washed three times with ice-cold phosphate-buffered saline (PBS). A total of 0.5 mL of lysis buffer [50 mM Hepes (pH 8.0) containing 5 mM ethylenediaminetetraacetic acid (EDTA) and 5 mM dithiothreitol (DTT)] is added to each dish. The cells are scraped using a rubber policeman, and are then transferred to a test tube on ice. The cell suspension is sonicated three times for 5 s at 1–2 min intervals on ice. Protein concentrations in cell homogenates are measured using a Bradford protein assay kit (Bio-Rad). To measure the SPT activity, 0.1 mL of cell homogenates are added to 0.1 mL of reaction buffer [20 mM Hepes (pH 8.0) containing 5 mM EDTA, 10 mM DTT, 50 μM pyridoxal-5′-phosphate, 0.4 mM palmitoyl CoA, 2 mM L-serine, 10 μCi of [^3H]serine, and test compound or standard inhibitor (myriocin). After incubation at 37° C. for 20 min with shaking, the reaction is terminated with 0.5 mL of 0.5 N NH4OH containing 10 mM L-serine. The lipid products are extracted using the solvent system: 3 mL of chloroform/methanol (1:2), 25 μg of sphingosine (1 mg/mL in ethanol) as a carrier, 2 mL of chloroform, and 3.8 mL of 0.5 N NH4OH. After vigorous mixing, the phases are separated by centrifugation at 2500 rpm for 5 min. The aqueous layer is removed by aspiration, and the lower chloroform layer is washed 3 times with 4.5 mL of water. The chloroform layer is transferred to a scintillation vial, and the solvent is evaporated under N2 gas. The radioactivity is measured with a LS6000TA liquid scintillation counter (Beckman). Nonspecific conversion of [^3H] serine to chloroform-soluble species is determined by performing the assay in the absence of palmitoyl CoA. The count of the background is about one-sixth of the count of 100% activity.
An alternative assay using a non-chlorinated solvent modification of the Blye and Dyer lipid extraction method reported in Smedes (Smedes, F., Analyst 124:1711–18 (1999)) was employed to evaluate exemplary compounds. In this approach, the cells were washed three times with ice-cold phosphate-buffered saline and 0.5 mL of lysis buffer was added to each dish. The cells were scraped using a rubber policeman and transfer to a test tube on ice. The cell suspension was sonicated three times for 5 s at 1–2 min intervals on ice. A 0.1 mL sample of cell homogenates were added to 0.1 mL of reaction buffer in a test tube containing the appropriate concentration of test substance and 10 μCi of [^3H] serine. The reaction mixture was incubated at 37° C. for 20 min with shaking, and the reaction was terminated with 0.5 mL of […] NH4OH stop solution containing 10 mM unlabeled L-serine. Total lipids are extracted by transferring the contents of the test tube into a 15 ml centrifuge tube containing: 4.5 mL of isopropanol/cyclohexane (4:5) containing 25 μg of sphingosine (1 mg/mL in ethanol and diluted into the isopropanol/cyclohexane mixture) as a carrier. The contents were mixed vigorously and 4 mL of 0.5 N NH4OH was added. The phases were separated by centrifugation at 2500 rpm for 5 min. An accurately measured portion of the organic layer (4.0 ml) was added to a scintillation vial with 1 ml of water. Ultima Gold F (5 ml) was added, the vial was vortexed and allowed to settle into separate layers. The amount of [^3H] serine radioactivity incorporated into lipids was quantified in a scintillation counter. Non-specific counts were determined by carrying out the assay with control samples containing no palmitoyl CoA.

Rat pancreatic islets = experiment: Protection of islets from fatty acid (palmitate) induced apoptosis, propidium iodide flow cytometry; format: cell-based; settings: 3 days; for % Apoptosis: Fatty Acid medium (1 millimolar sodium palmitate), Control medium 2.40, Fatty Acid medium 17.60
Description: Islet protection by an exemplary compound was evaluated in an assay according to Eitel, K, et al (2002), and results obtained in this assay are reported below in Table 4. Rat pancreatic islets were cultured with control medium (RPMI 1640 supplemented with 10% fetal bovine serum, antibiotics and made […]) or in medium supplemented with 1 millimolar sodium palmitate (Fatty Acid Medium) during a period of 3 days. The culture medium was changed after 2 days to an identical composition culture medium with fresh inhibitor in the appropriate wells. Cells were stained with propidium iodide (PI), washed and propidium staining of cells (as a measure of cellular DNA content) was assessed by flow cytometry. The percentage of cells having less than the normal amount of PI staining was considered to be apoptotic cells (Eitel, K, et al. (2002)).

beta cell apoptosis = settings: diabetic Zucker fatty rat model; cited from earlier work
[3] = 1 nM, Table 2, No Inhibitor 4443/4483, no CoA blank 305
[4] = 10 nM, Table 2, No Inhibitor 4443/4483, no CoA blank 305

| SMILES | activity against SPT (in words) (SPT [1]) | Counts (SPT [2]; [3]) | Counts (SPT [2]; [4]) | inhibition of SPT (in words) (SPT [2]) | % Apoptosis (Rat pancreatic islets) [%] | also measured |
| --- | --- | --- | --- | --- | --- | --- |
| CCCCCCCCc1ccc(CCC(N)(CO)C(=O)O)cc1 (stereo not shown) [Compound 2] | did not exhibit activity against SPT | – | – | – | – | – |
| CCCCCCCOc1ccc(CCC(N)(CO)C(=O)O)cc1 (stereo not shown) [Compound 12] | – | 4215 | 4118 | moderate activity | 2.33 | Counts (SPT [2]; 100 nM, Table 2, No Inhibitor 4443/4483, no CoA blank 305): 4258; Counts (SPT [2]; 1 μM, Table 2, No Inhibitor 4443/4483, no CoA blank 305): 4169; Counts (SPT [2]; 10 μM, Table 2, No Inhibitor 4443/4483, no CoA blank 305): 4608; protection of cells from the fatty acid treatment (in words) (Rat pancreatic islets; rat islets, fatty acid medium): fully protect cells |
| CCCCCCCCc1ccc(CCC(N)(CO)CO)cc1 [FTY720] | do not inhibit SPT | – | – | – | – | – |
| CCCCCCC(=O)CCCCCC/C=C/C[C@@H](O)[C@H](O)[C@@](N)(CO)C(=O)O [ISP, myriocin] | – | 2509 | 535 | potent but non-selective inhibition of SPT | 14.65 | Counts (SPT [2]; 10 nM, Table 3, Control 5816, No Palm CoA 611): 959 |
| N[C@@H]1CON=C1O [cycloserine] | – | – | – | – | – | partial beta cell protective effect (beta cell apoptosis): ~50 % activity |
